Measurements reported in US20040167217A1, “Neuroprotective effects of polyphenolic compounds” (priority 2003, published 2004).

Assays:
Assay type in all cases: cell-based, rat
cortical neurons = test: Glucose oxidase (GOX)-mediated cellular injury, Alamar blue cell viability
Experimental: To better assess the neuroprotective activity of curcumin, cell viability was determined for cortical neurons treated with 25 μM curcumin for 12 h followed by incubation for 2 h in the presence of glucose oxidase (100 mU/ml). This oxidant system generates hydrogen peroxide at a constant rate and is known to promote cellular injury in vitro^14. After treatment with glucose oxidase, cells were washed and exposed to complete medium containing 1% Alamar blue for 5 h according to manufacturers' instruction (Serotec, UK), in order to assess cell viability. After the 2 h incubation period, optical density in the medium of each well was measured using a plate reader (Molecular Devices; Crawley, UK). The assay is based on detection of metabolic activity of living cells using a redox indicator, which changes from oxidized (blue) to reduced (red) form. The intensity of the red color is proportional to the viability of cells, which is calculated as a difference in absorbance between 570 nm and 600 nm and expressed as a percentage of control. […] However, exposure of cells for 24 h to curcumin 25 μM reduced glucose oxidase-mediated damage and restored cell viability to 70% of control.
An inhibitor of HO-1 activity may be used to determine whether or not the effects of the polyphenolic compounds or analogs thereof are induced through the heme oxygenase signaling pathway. To understand the relevance of the induction of the stress protein HO-1 on the neuroprotective effects afforded by curcumin we treated cortical neuron exposed to β-amyloid with curcumin ([…]) alone or in the presence of tinprotoporphirine IX (SnPP) 40 μM, a specific inhibitor of HO-1 activity. The same treatment was performed in cortical neurons exposed to GOX-induced cellular damage.

HO-1 mRNA = HO-1 mRNA expression, semi-quantitative RT-PCR, cortical neurons
Experimental: A semi-quantitative RT-PCR was performed to investigate the activity of curcumin on HO-1 mRNA expression, using specific HO-1 primers (FIG. 8) that generated a 123 bp product. […] The HO-2 primers generated a 331-bp PCR product. […] In order to test the effects of polyphenolic compounds, or analogs thereof, on heme oxygenase activity, curcumin and CAPE were added to cortical neurons for analysis. Heme oxygenase activities resulting from curcumin and CAPE treatment are shown in FIGS. 7A and 9A, respectively. Neuroprotective protein expression is observed in FIGS. 7B-C and 9B. The activity of curcumin on HO-1 mRNA expression may be measured to ensure that heme oxygenase activity correlates with mRNA expression (FIG. 8). Semi-quantitative reverse transcriptase-polymerase chain reaction using HO-1 and HO-2 (control) forward and reverse primers are as follows: […]

heme oxygenase = test: Heme oxygenase activity assay in cortical neurons
Experimental: The ability of curcumin to interact with the heme oxygenase (HO) pathway in primary cortical neurons was tested. Cells were exposed to various concentrations of curcumin (1-100 μM) and heme oxygenase activity. HO-1 mRNA and protein expression were determined at different times after treatment. N-acetyl cysteine (NAC; 1 mM), a precursor of glutathione and a sulphydril donor with potent anti-oxidant properties, was also used to examine whether changes in heme oxygenase activity by curcumin are mediated by pro-oxidant mechanisms. Heme oxygenase activity assays were performed using a modified methodology previously described by […], et al.^15 Cells were washed with PBS, scraped off their plates, separated by centrifugation, and resuspended in a solution containing 100 mM PBS and 2mM MgCl2, freeze/thawed three times, and finally sonicated. The supernatant was added to a reaction mixture containing nicotinamide adenine dinucleotide phosphate (NADPH) (0.8 mM), glucose 6-phosphate (2 mM), glucose-6-phosphate dehydrogenase (0.2 units), 3 mg of rat liver cytosol prepared from a 105,000×g supernatant fraction as a source of biliverdin reductase, potassium phosphate buffer (PBS, 100 mM, pH 7.4), MgCl2 (0.2 mM), and hemin (20 μM). The reaction was conducted at 37° C. in the dark for 1 h and terminated by the addition of 1 ml of chloroform. The amount of extracted bilirubin was calculated by the difference in absorbance between 464 nm and 530 nm (ε=40 mM^-1 cm^-1). Heme oxygenase activity was expressed as picomoles of bilirubin/mg of cell protein/h. The total protein content of confluent cells was determined using a Bio-Rad DC protein assay (Bio-Rad; Herts, UK) by comparison with a standard curve obtained with bovine serum albumin.

COc1cc(C=CC(=O)CC(=O)C=Cc2ccc(O)c(OC)c2)ccc1O [curcumin, 1,7-bis[4-Hydroxy-3-methoxyphenyl]-1,6-heptadiene-3,5-dione]
cell viability after glucose oxidase (cortical neurons; 25 μM, then glucose oxidase 100 mU/ml for 2 h): 70 % of control | cell viability, GOX-induced cellular damage (in words) (cortical neurons; curcumin alone): able to overcome the apoptotic effects of GOX alone | cell viability, GOX-induced cellular damage in the presence of SnPP (cortical neurons; curcumin plus SnPP 40 μM): only partially in combination with SnPP | HO-1 mRNA expression (HO-1 mRNA): dose-dependent over-expression of HO-1 mRNA | maximal heme oxygenase activity, increase over control (heme oxygenase; 25 μM, 6h): 10 fold | heme oxygenase activity (heme oxygenase; 50 μM): gradually decreased to those of control values | heme oxygenase activity (heme oxygenase; 1-50 μM, 6h): concentration-dependent increase in heme oxygenase activity | dose-dependent induction of heme oxygenase activity (heme oxygenase; 24h exposure): maintained after 24h exposure
